Experiment: TIMS collisional cross section (CCS, N2) of the lipid ion; higher = larger ion cross section
Conditions: sample type: HeLa; ionization mode: positive; one isomer drawn

Compound	TIMS collisional cross section [Å²]
CC/C=C\C/C=C\C/C=C\C/C=C\CCCCC(=O)O[C@H](COC(=O)CCCCCCC/C=C\CCCCCCCC)COP(=O)([O-])OCC[N+](C)(C)C [PC 18:1@_18:4] (ion (formula + adduct): [C44H78NO8P+H] 1+)	289.4
CCCCC/C=C\C/C=C\C/C=C\C/C=C\CCCC(=O)O[C@H](COC(=O)CCCCCCC/C=C\CCCCCCCC)COP(=O)([O-])OCC[N+](C)(C)C [PC 18:1@_20:4] (ion (formula + adduct): [C46H82NO8P+H] 1+)	292.7
CC/C=C\C/C=C\C/C=C\C/C=C\C/C=C\CCCC(=O)O[C@H](COC(=O)CCCCCCCCC/C=C\CCCCCC)COP(=O)([O-])OCC[N+](C)(C)C [PC 18:1@_20:5] (ion (formula + adduct): [C46H80NO8P+H] 1+)	290.2
CCCCCCC/C=C\CCCCCCCCC(=O)OC[C@H](COP(=O)([O-])OCC[N+](C)(C)C)OC(=O)CCCCCCCC/C=C\CCCCCCC [PC 18:1_18:1] (ion (formula + adduct): [C44H84NO8P+H] 1+)	292.9
CCCCCCCC/C=C\C/C=C\CCCCC(=O)O[C@H](COC(=O)CCCCCCC/C=C\CCCCCCCC)COP(=O)([O-])OCC[N+](C)(C)C [PC 18:1_18:2@] (ion (formula + adduct): [C44H82NO8P+H] 1+)	290.1
CCCCC/C=C\C/C=C\CCCCCCCCCC(=O)O[C@H](COC(=O)CCCCCCC/C=C\CCCCCCCC)COP(=O)([O-])OCC[N+](C)(C)C [PC 18:1_20:2] (ion (formula + adduct): [C46H86NO8P+H] 1+)	295.9
CCCCCCCC/C=C\C/C=C\C/C=C\CCCC(=O)O[C@H](COC(=O)CCCCCCC/C=C\CCCCCCCC)COP(=O)([O-])OCC[N+](C)(C)C [PC 18:1_20:3] (ion (formula + adduct): [C46H84NO8P+H] 1+)	294
CCCCCCCC/C=C\CCCCCCCC(=O)OC[C@H](COP(=O)([O-])OCC[N+](C)(C)C)OC(=O)CCCCCCCCC/C=C\CCCCCCCCCC [PC 18:1_22:1@] (ion (formula + adduct): [C48H92NO8P+H] 1+)	304.8
CCCCC/C=C\C/C=C\CCCCCCCCCCCC(=O)O[C@H](COC(=O)CCCCCCC/C=C\CCCCCCCC)COP(=O)([O-])OCC[N+](C)(C)C [PC 18:1_22:2@] (ion (formula + adduct): [C48H90NO8P+H] 1+)	302.4
CC/C=C\C/C=C\C/C=C\C/C=C\C/C=C\CCCC(=O)O[C@H](COC(=O)CCCCCCC/C=C\C/C=C\CCCCC)COP(=O)([O-])OCC[N+](C)(C)C [PC 18:2@_20:5] (ion (formula + adduct): [C46H78NO8P+H] 1+)	286.6
CCCCCCCCCCCCC/C=C/C=C/C(=O)OC[C@H](COP(=O)([O-])OCC[N+](C)(C)C)OC(=O)/C=C/C=C/CCCCCCCCCCCCC [PC 18:2_18:2] (ion (formula + adduct): [C44H80NO8P+H] 1+)	287.6

Same assay, conditions: sample type: Liver; ionization mode: positive; one isomer drawn

Compound	TIMS collisional cross section [Å²]
CC/C=C\C/C=C\C/C=C\C/C=C\C/C=C\CCCC(=O)O[C@H](COC(=O)CCCCCCCCC/C=C\CCCCCC)COP(=O)([O-])OCC[N+](C)(C)C [PC 18:1@_20:5] (ion (formula + adduct): [C46H80NO8P+H] 1+)	290.9
CC/C=C\C/C=C\C/C=C\C/C=C\C/C=C\CCCCCC(=O)O[C@H](COC(=O)CCCCCCCCC/C=C\CCCCCC)COP(=O)([O-])OCC[N+](C)(C)C [PC 18:1@_22:5] (ion (formula + adduct): [C48H84NO8P+H] 1+)	297
CCCCCCCC/C=C\C/C=C\C/C=C\CCCC(=O)O[C@H](COC(=O)CCCCCCC/C=C\CCCCCCCC)COP(=O)([O-])OCC[N+](C)(C)C [PC 18:1_20:3] (ion (formula + adduct): [C46H84NO8P+H] 1+)	293.7
CC/C=C\C/C=C\C/C=C\C/C=C\C/C=C\C/C=C\CCC(=O)O[C@H](COC(=O)CCCCCCCCC/C=C\CCCCCC)COP(=O)([O-])OCC[N+](C)(C)C [PC 18:1_22:6] (ion (formula + adduct): [C48H82NO8P+H] 1+)	295.6
CCCCC/C=C\C/C=C\C/C=C\CCCCC(=O)O[C@H](COC(=O)CCCCCCC/C=C\C/C=C\CCCCC)COP(=O)([O-])OCC[N+](C)(C)C [PC 18:2@_18:3] (ion (formula + adduct): [C44H78NO8P+H] 1+)	284.9
CCCCC/C=C\C/C=C\C/C=C\C/C=C\CCCC(=O)O[C@H](COC(=O)CCCCCCC/C=C\C/C=C\CCCCC)COP(=O)([O-])OCC[N+](C)(C)C [PC 18:2@_20:4] (ion (formula + adduct): [C46H80NO8P+H] 1+)	290.9
CCCCC/C=C\C/C=C\C/C=C\CCCCC(=O)O[C@H](COC(=O)CCCCCCC/C=C\C/C=C\CCCCC)COP(=O)([O-])OCC[N+](C)(C)C [PC 18:2_18:3@] (ion (formula + adduct): [C44H78NO8P+H] 1+)	289.9
CCCCC/C=C\C/C=C\CCCCCCCC(=O)OC[C@H](COP(=O)([O-])OCC[N+](C)(C)C)OC(=O)CCCCCCCCCCCCCCCCCC [PC 18:2_19:0] (ion (formula + adduct): [C45H86NO8P+H] 1+)	294.4
CCCCC/C=C\C/C=C\C/C=C\C/C=C\CCCC(=O)O[C@H](COC(=O)CCCCCCC/C=C\C/C=C\CCCCC)COP(=O)([O-])OCC[N+](C)(C)C [PC 18:2_20:4] (ion (formula + adduct): [C46H80NO8P+H] 1+)	290.1
CC/C=C\C/C=C\C/C=C\C/C=C\C/C=C\C/C=C\CCC(=O)O[C@H](COC(=O)CCCCCCC/C=C\C/C=C\CCCCC)COP(=O)([O-])OCC[N+](C)(C)C [PC 18:2_22:6] (ion (formula + adduct): [C48H80NO8P+H] 1+)	292.5
CCCCC/C=C\C/C=C\C/C=C\CCCCCCC(=O)O[C@H](COC(=O)CCCC/C=C\C/C=C\C/C=C\CCCCC)COP(=O)([O-])OCC[N+](C)(C)C [PC 18:3_20:3@] (ion (formula + adduct): [C46H80NO8P+H] 1+)	293.2
CCCCC/C=C\C/C=C\C/C=C\C/C=C\CCCC(=O)O[C@H](COC(=O)CCCC/C=C\C/C=C\C/C=C\CCCCC)COP(=O)([O-])OCC[N+](C)(C)C [PC 18:3_20:4] (ion (formula + adduct): [C46H78NO8P+H] 1+)	286.7
CC/C=C\C/C=C\C/C=C\C/C=C\C/C=C\C/C=C\CCC(=O)O[C@H](COC(=O)CCCC/C=C\C/C=C\C/C=C\CCCCC)COP(=O)([O-])OCC[N+](C)(C)C [PC 18:3_22:6@] (ion (formula + adduct): [C48H78NO8P+H] 1+)	289.6
CCCCC/C=C\C/C=C\C/C=C\CCCCCCC(=O)O[C@H](COC(=O)CCCCCCCCCCCCCCCCCC)COP(=O)([O-])OCC[N+](C)(C)C [PC 19:0@_20:3] (ion (formula + adduct): [C47H88NO8P+H] 1+)	299.8
CCCCC/C=C\C/C=C\C/C=C\C/C=C\CCCC(=O)O[C@H](COC(=O)CCCCCCCCCCCCCCCCCC)COP(=O)([O-])OCC[N+](C)(C)C [PC 19:0@_20:4] (ion (formula + adduct): [C47H86NO8P+H] 1+)	298
CC/C=C\C/C=C\C/C=C\C/C=C\C/C=C\C/C=C\CCC(=O)O[C@H](COC(=O)CCCCCCCCCCCCCCCCCC)COP(=O)([O-])OCC[N+](C)(C)C [PC 19:0@_22:6] (ion (formula + adduct): [C49H86NO8P+H] 1+)	300.5

Same assay, conditions: sample type: plasma; ionization mode: positive; one isomer drawn

Compound	TIMS collisional cross section [Å²]
CCCCCCCC/C=C\C/C=C\CCCCC(=O)O[C@H](COC(=O)CCCCCCC/C=C\CCCCCCCC)COP(=O)([O-])OCC[N+](C)(C)C [PC 18:1_18:2] (ion (formula + adduct): [C44H82NO8P+H] 1+)	289.8
CCCCC/C=C\C/C=C\C/C=C\C/C=C\CCCC(=O)O[C@H](COC(=O)CCCCCCC/C=C\CCCCCCCC)COP(=O)([O-])OCC[N+](C)(C)C [PC 18:1_20:4] (ion (formula + adduct): [C46H82NO8P+H] 1+)	294.3
CC/C=C\C/C=C\C/C=C\C/C=C\C/C=C\C/C=C\CCC(=O)O[C@H](COC(=O)CCCCCCCCC/C=C\CCCCCC)COP(=O)([O-])OCC[N+](C)(C)C [PC 18:1_22:6@] (ion (formula + adduct): [C48H82NO8P+H] 1+)	296.5
CC/C=C\C/C=C\C/C=C\C/C=C\C/C=C\CCCC(=O)O[C@H](COC(=O)CCCCCCC/C=C\C/C=C\CCCCC)COP(=O)([O-])OCC[N+](C)(C)C [PC 18:2@_20:5] (ion (formula + adduct): [C46H78NO8P+H] 1+)	287
CCCCC/C=C\C/C=C\CCCCCCCC(=O)OC[C@H](COP(=O)([O-])OCC[N+](C)(C)C)OC(=O)CCCCCCCCCCCCCCCCCCCCCCC [PC 18:2@_24:0] (ion (formula + adduct): [C50H96NO8P+H] 1+)	310.1
CCCCCCCCCCCCC/C=C/C=C/C(=O)OC[C@H](COP(=O)([O-])OCC[N+](C)(C)C)OC(=O)/C=C/C=C/CCCCCCCCCCCCC [PC 18:2_18:2] (ion (formula + adduct): [C44H80NO8P+H] 1+)	286.9
CCCCC/C=C\C/C=C\C/C=C\CCCCC(=O)O[C@H](COC(=O)CCCCCCC/C=C\C/C=C\CCCCC)COP(=O)([O-])OCC[N+](C)(C)C [PC 18:2_18:3@] (ion (formula + adduct): [C44H78NO8P+H] 1+)	289.3
CCCCC/C=C\C/C=C\C/C=C\CCCCC(=O)O[C@H](COC(=O)CCCCCCC/C=C\C/C=C\CCCCC)COP(=O)([O-])OCC[N+](C)(C)C [PC 18:2_18:3] (ion (formula + adduct): [C44H78NO8P+H] 1+)	283.6
CCCCC/C=C\C/C=C\C/C=C\CCCCC(=O)OC[C@H](COP(=O)([O-])OCC[N+](C)(C)C)OC(=O)CCCCCCC/C=C\CCCCCCCCC [PC 18:3@_19:1] (ion (formula + adduct): [C45H82NO8P+H] 1+)	295
CCCCC/C=C\C/C=C\C/C=C\C/C=C\CCCC(=O)O[C@H](COC(=O)CCCC/C=C\C/C=C\C/C=C\CCCCC)COP(=O)([O-])OCC[N+](C)(C)C [PC 18:3@_20:4] (ion (formula + adduct): [C46H78NO8P+H] 1+)	292.8
CC/C=C\C/C=C\C/C=C\C/C=C\C/C=C\CCCC(=O)O[C@H](COC(=O)CCCC/C=C\C/C=C\C/C=C\CCCCC)COP(=O)([O-])OCC[N+](C)(C)C [PC 18:3_20:5] (ion (formula + adduct): [C46H76NO8P+H] 1+)	288.2
